Measured values: patent US7517870B2, “Use of compounds that interfere with the hedgehog signaling pathway for the manufacture of a medicament for preventing, inhibiting, and/or reversing ocular diseases related with ocular neovascularization” (Fondazione Telethon, priority 2004, dated 2009)

Experiments:
[1] = system: retinal (ocular) neovascularization; test: Angiography after fluorescein-dextran perfusion in mouse model of Retinopathy of Prematurity (ROP); type: in vivo, C57/BL6 mice; conditions: ROP mice
Source text: To determine whether inhibition of the Shh signaling pathway by administration of an siRNA targeting Shh is able to reduce retinal (ocular) neovascularization, siRNA targeting Shh is administrated to a mouse model of Retinopathy of Prematurity (ROP).
C57/BL6 mice are used in this study. Mice from postnatal day 7 (P7) to P12 are exposed to hyperoxia (25% nitrogen, 75% oxygen). At P12 mice return to room air until P17. The group of five mice treated with siRNA targeting Shh receive a daily subretinal injection (1 μl) of 100 mg/ml siRNA targeting Shh dissolved in Phosphate-Buffered Saline (PBS) from P12 to P17, controls receive the vehicle alone.

[2] = system: VEGF protein expression in 293 cells; conditions: HEK-293 cells, desferroxamine 100 μM, Cyclopamine 10 μM, 24 hours
Experimental: Five μl of 95% ethanol was added to untreated control.
Twenty-four hours after induction of hypoxia the supernatant of the 293 cells was removed from wells and a human VEGF ELISA (R & D Systems, Minneapolis, Minn.) was performed on the cell supernatants (FIG. 4) as described in the Quantikine human VEGF ELISA protocol using a dilution of
the medium of 1:10. ELISA results were read on a Bio-Rad Reader 550 ELISA plate reader (Bio-Rad Laboratories, Inc, CA).

Hh-dependent tumors = conditions: mice that carry Hh-dependent tumors; cited from earlier work
[3] = daily subretinal injection (1 μl) of 100 mg/ml siRNA in PBS from P12 to P17, angiography on P17, vs vehicle control eyes

For “siRNA targeting Shh: siRNA duplex, SEQ ID NO:16 (sense strand) and SEQ ID NO:15 (antisense strand) (sense AAUUACAACCCCGACAUCAUAUU; antisense UAUGAUGUCGGGGUUGUAAUUUU; listed as RNA, chemistry not given here)”, the “inhibition of ocular neovascularization (neovascular tufts and vessel leakage)” value (“inhibition of ocular neovascularization” for short) [1, 3] was “Robust inhibition of ocular neovascularization”.

In the case of “siRNA targeting Smoothened: siRNA duplex, SEQ ID NO:17 (sense strand) and SEQ ID NO:18 (antisense strand) (sense AAGGCCUUCUCUAAGCGGCAUU; antisense UGCCGCUUAGAGAAGGCCUUUU; listed as RNA, chemistry not given here)”, the “inhibition of ocular neovascularization” value [1, 3] is reported as “Robust inhibition of ocular neovascularization”.

With “siRNA targeting Gli1: siRNA duplex, SEQ ID NO:19 (sense strand) and SEQ ID NO:20 (antisense strand) (sense ACGCCGCAGCAGCAGCUCCUU; antisense GGAGCUGCUGCUGCGGCGUUU; listed as RNA, chemistry not given here)” the “inhibition of ocular neovascularization” value [1, 3] was “Robust inhibition of ocular neovascularization”.

In the case of `CC1=C2C[C@H]3[C@@H](CC=C4C[C@@H](O)CC[C@@]43C)[C@@H]2CC[C@]12O[C@@H]1C[C@H](C)CN[C@H]1[C@H]2C` [cyclopamine], the “inhibition of hypoxia-induced VEGF expression” value [2] is listed as “Able to Inhibit Hypoxia-Induced VEGF Expression”, the “inhibition of ocular neovascularization” value ([1]; daily subcutaneous injection of 50 mg/kg from P12 to P17, angiography on P17, vs vehicle control eyes) is listed as “Robust inhibition of ocular neovascularization” and the “effect on Hh-dependent tumors” value (Hh-dependent tumors) is listed as “growth inhibition and regression of cancerous tissue”. The “health of treated animals” value (Hh-dependent tumors) was “does not affect the health of treated animals”.

B1: soluble Hip1: secreted form of Hedgehog interacting protein 1 lacking the transmembrane domain (SEQ ID NO:6), produced in 293 cells (protein, listed as Mus musculus)
chain: MLKMLSFKLLLLAVALGFFEGDAKFGERNEGSGARRRRCLNGNPPKRLKRRDRRVMSQLELLSGGEILCGGFYPRVSCCLQSDSPGLGRLENKIFSATNNSECSRLLEEIQCAPCSPHSQSLFYTPERDVLDGDLALPLLCKDYCKEFFYTCRGHIPGLLQTTADEFCFYYARKDAGLCFPDFPRKQVRGPASNYLGQMEDYEKVGGISRKHKHNCLCVQEVMSGLRQPVSAVHSGDGSHRLFILEKEGYVKILTPEGELFKEPYLDIHKLVQSGIKGGDERGLLSLAFHPNYKKNGKLYVSYTTNQERWAIGPHDHILRVVEYTVSRKNPHQVDVRTARVFLEVAELHRKHLGGQLLFGPDGFLYIILGDGMITLDDMEEMDGLSDFTGSVLRLDVDTDMCNVPYSIPRSNPHFNSTNQPPEVFAHGLHDPGRCAVDRHPTDININLTILCSDSNGKNRSSARILQIIKGRGYESEPSLLEFKPFSNGPLVGGFVYRGCQSERLYGSYVFGDRNGNFLTLQQSPVTKQWQEKPLCLGASSSCRGYFSGHILGFGEDELGEVYILSSSKSMTQTHNGKLYKIVDPKRPLMPEECRVTVQPAQPLTSDCSRLCRNGYYTPTGKCCCSPGWEGDFCRIAKCEPACRHGGVCVRPNKCLCKKGYLGPQCEQVDRNVRRVTR
In the case of B1, the “inhibition of ocular neovascularization” value ([1]; daily subretinal injection of 50 mg/kg in PBS from P12 to P17, angiography on P17, vs vehicle control eyes) is reported as “Robust inhibition of ocular neovascularization”.
